# Laboratory results: patent publication US10563263B2, “Genetic polymorphisms associated with statin response and cardiovascular diseases, methods of detection and uses thereof” (CELERA CORPORATION, priority 2010, dated 2020)
# Tested on: revascularization, unstable angina requiring hospitalization, MI, all causes of death, or stroke
# Test: PROVE IT-TIMI 22: SNP by treatment interaction (high-dose atorvastatin vs standard-dose pravastatin), logistic regression (synergy index), primary composite endpoint
# Type: in vivo, human
# Conditions: for OR: PROVEIT
compound,measurement,setting,value
"CC(C)c1c(C(=O)Nc2ccccc2)c(-c2ccccc2)c(-c2ccc(F)cc2)n1CC[C@@H](O)C[C@@H](O)CC(=O)O [Atorvastatin, atorvastatin]",OR,"marker rs13129010, caseonly, model dom, End-point CHD, atorvastatin vs pravastatin",1.39
same,OR,"marker rs13150189, caseonly, model dom, End-point CVD, atorvastatin vs pravastatin",1.36
same,OR,"marker rs16934059, cohort, model dom, End-point CHD, atorvastatin vs pravastatin",0.65
same,OR,"marker rs17002013, cohort, model dom, End-point CVD, atorvastatin vs pravastatin",1.38
same,OR,"marker rs17688430, caseonly, model add, End-point CVD, atorvastatin vs pravastatin",0.77
same,OR,"marker rs17821383, caseonly, model rec, End-point CHD, atorvastatin vs pravastatin",0.35
same,OR,"rs4773, caseonly, dom, CVD",0.68
same,OR,"rs475420, caseonly, dom, CVD",1.57
same,OR,"rs1045916, caseonly, add, CHD",0.79
same,OR,"rs7067780, caseonly, dom, CVD",1.41
same,OR,"rs9906737, caseonly, dom, CHD",0.53
same,OR,"rs17644708, caseonly, rec, CVD",0.34
same,OR (SNP x treatment interaction),"rs742827, allele A, ADD, Imputed, atorvastatin vs pravastatin",1.396
same,OR (SNP x treatment interaction),"rs879961, allele T, ADD, Imputed, atorvastatin vs pravastatin",1.178
same,OR (SNP x treatment interaction),"rs906353, allele A, DOM, Imputed, atorvastatin vs pravastatin",1.22
same,OR (SNP x treatment interaction),"rs915491, allele C, DOM, Imputed, atorvastatin vs pravastatin",1.329
same,OR (SNP x treatment interaction),"rs915493, allele T, DOM, Imputed, atorvastatin vs pravastatin",1.329
same,OR (SNP x treatment interaction),"rs915494, allele A, ADD, Imputed, atorvastatin vs pravastatin",1.399
same,OR (SNP x treatment interaction),"rs915494, allele A, DOM, Imputed, atorvastatin vs pravastatin",1.486
same,OR (SNP x treatment interaction),"rs917295, allele G, DOM, Imputed, atorvastatin vs pravastatin",0.5934
same,OR (SNP x treatment interaction),"rs966583, allele A, ADD, Imputed, atorvastatin vs pravastatin",0.7596
same,OR (SNP x treatment interaction),"rs966583, allele A, DOM, Imputed, atorvastatin vs pravastatin",0.6781
same,OR (SNP x treatment interaction),"rs7180245, allele A, REC, Imputed, atorvastatin vs pravastatin",1.965
same,OR (SNP x treatment interaction),"rs7283476, allele T, ADD, Imputed, atorvastatin vs pravastatin",0.413
same,OR (SNP x treatment interaction),"rs7283476, allele T, DOM, Imputed, atorvastatin vs pravastatin",0.3545
same,OR (SNP x treatment interaction),"rs7298255, allele A, ADD, Imputed, atorvastatin vs pravastatin",0.7433
same,OR (SNP x treatment interaction),"rs7298255, allele A, DOM, Imputed, atorvastatin vs pravastatin",0.74
same,OR (SNP x treatment interaction),"rs7392620, allele C, ADD, Imputed, atorvastatin vs pravastatin",0.6521
same,OR (SNP x treatment interaction),"rs7446891, allele G, DOM, Imputed, atorvastatin vs pravastatin",0.5934
same,OR (SNP x treatment interaction),"rs7448641, allele C, ADD, Imputed, atorvastatin vs pravastatin",0.9741
same,OR (SNP x treatment interaction),"rs7448641, allele C, DOM, Imputed, atorvastatin vs pravastatin",1.136
same,OR (SNP x treatment interaction),"rs7499402, allele A, ADD, Genotyped, atorvastatin vs pravastatin",2.08
same,OR (SNP x treatment interaction),"rs7529851, allele A, ADD, Imputed, atorvastatin vs pravastatin",0.7324
same,OR (SNP x treatment interaction),"rs7573951, allele G, ADD, Imputed, atorvastatin vs pravastatin",1.009
same,OR (SNP x treatment interaction),"rs7599198, allele T, DOM, Imputed, atorvastatin vs pravastatin",0.9895
same,OR (SNP x treatment interaction),"rs7607712, allele T, ADD, Imputed, atorvastatin vs pravastatin",1.357
same,OR (SNP x treatment interaction),"rs7607712, allele T, DOM, Imputed, atorvastatin vs pravastatin",1.496
same,OR (SNP x treatment interaction),"rs7621663, allele G, REC, Imputed, atorvastatin vs pravastatin",0.8874
same,OR (SNP x treatment interaction),"rs7626584, allele G, ADD, Imputed, atorvastatin vs pravastatin",0.6617
same,OR (SNP x treatment interaction),"rs7684899, allele C, ADD, Imputed, atorvastatin vs pravastatin",0.617
same,OR (SNP x treatment interaction),"rs7684899, allele C, DOM, Imputed, atorvastatin vs pravastatin",0.5176
same,OR (SNP x treatment interaction),"rs7701604, allele G, ADD, Imputed, atorvastatin vs pravastatin",0.9741
same,OR (SNP x treatment interaction),"rs7701604, allele G, DOM, Imputed, atorvastatin vs pravastatin",1.136
same,OR (SNP x treatment interaction),"rs7703676, allele C, ADD, Imputed, atorvastatin vs pravastatin",0.9741
same,OR (SNP x treatment interaction),"rs7703676, allele C, DOM, Imputed, atorvastatin vs pravastatin",1.136
same,OR (SNP x treatment interaction),"rs7708491, allele C, REC, Imputed, atorvastatin vs pravastatin",1.179
same,OR (SNP x treatment interaction),"rs7711358, allele A, DOM, Imputed, atorvastatin vs pravastatin",0.593
same,OR (SNP x treatment interaction),"rs7724761, allele T, REC, Imputed, atorvastatin vs pravastatin",1.207
same,OR (SNP x treatment interaction),"rs7762993, allele A, ADD, Imputed, atorvastatin vs pravastatin",1.066
same,OR (SNP x treatment interaction),"rs7762993, allele A, DOM, Imputed, atorvastatin vs pravastatin",1.079
same,OR (SNP x treatment interaction),"rs7767265, allele G, ADD, Imputed, atorvastatin vs pravastatin",1.18
same,OR (SNP x treatment interaction),"rs7768128, allele G, REC, Imputed, atorvastatin vs pravastatin",0.3066
same,OR (SNP x treatment interaction),"rs7773151, allele C, DOM, Genotyped, atorvastatin vs pravastatin",1.038
same,OR (SNP x treatment interaction),"rs7773210, allele A, DOM, Genotyped, atorvastatin vs pravastatin",1.038
same,OR (SNP x treatment interaction),"rs7843510, allele G, DOM, Genotyped, atorvastatin vs pravastatin",0.9929
same,OR (SNP x treatment interaction),"rs7939893, allele C, ADD, Imputed, atorvastatin vs pravastatin",0.6916
same,OR (SNP x treatment interaction),"rs7939893, allele C, DOM, Imputed, atorvastatin vs pravastatin",0.506
same,OR (SNP x treatment interaction),"rs7944513, allele T, REC, Imputed, atorvastatin vs pravastatin",1.787
same,OR (SNP x treatment interaction),"rs7949720, allele G, ADD, Imputed, atorvastatin vs pravastatin",1.485
same,OR (SNP x treatment interaction),"rs7949720, allele G, DOM, Imputed, atorvastatin vs pravastatin",1.52
same,OR (SNP x treatment interaction),"rs7955901, allele C, ADD, Imputed, atorvastatin vs pravastatin",0.7285
same,OR (SNP x treatment interaction),"rs7955901, allele C, DOM, Imputed, atorvastatin vs pravastatin",0.7139
same,OR (SNP x treatment interaction),"rs7956274, allele T, ADD, Imputed, atorvastatin vs pravastatin",0.7156
same,OR (SNP x treatment interaction),"rs7956274, allele T, DOM, Imputed, atorvastatin vs pravastatin",0.7031
same,OR (SNP x treatment interaction),"rs7957932, allele G, ADD, Imputed, atorvastatin vs pravastatin",0.7234
same,OR (SNP x treatment interaction),"rs7957932, allele G, DOM, Imputed, atorvastatin vs pravastatin",0.6888
same,OR (SNP x treatment interaction),"rs7999518, allele A, REC, Imputed, atorvastatin vs pravastatin",0.4462
same,OR (SNP x treatment interaction),"rs8026245, allele G, REC, Imputed, atorvastatin vs pravastatin",1.888
same,OR (SNP x treatment interaction),"rs8060725, allele A, ADD, Genotyped, atorvastatin vs pravastatin",0.6772
same,OR (SNP x treatment interaction),"rs8103016, allele A, ADD, Genotyped, atorvastatin vs pravastatin",1.223
same,OR (SNP x treatment interaction),"rs8104182, allele G, ADD, Imputed, atorvastatin vs pravastatin",1.298
same,OR (SNP x treatment interaction),"rs8104182, allele G, DOM, Imputed, atorvastatin vs pravastatin",1.4
same,OR (SNP x treatment interaction),"rs8129461, allele G, ADD, Imputed, atorvastatin vs pravastatin",0.3726
same,OR (SNP x treatment interaction),"rs8129461, allele G, DOM, Imputed, atorvastatin vs pravastatin",0.3187
same,OR (SNP x treatment interaction),"rs8130021, allele G, ADD, Imputed, atorvastatin vs pravastatin",0.4152
same,OR (SNP x treatment interaction),"rs8130021, allele G, DOM, Imputed, atorvastatin vs pravastatin",0.3565
same,OR (SNP x treatment interaction),"rs9293464, allele T, REC, Imputed, atorvastatin vs pravastatin",1.207
same,OR (SNP x treatment interaction),"rs9295154, allele G, DOM, Genotyped, atorvastatin vs pravastatin",1.463
same,OR (SNP x treatment interaction),"rs9310221, allele A, DOM, Imputed, atorvastatin vs pravastatin",0.8966
same,OR (SNP x treatment interaction),"rs9327555, allele T, DOM, Imputed, atorvastatin vs pravastatin",0.5934
same,OR (SNP x treatment interaction),"rs9403367, allele C, DOM, Imputed, atorvastatin vs pravastatin",1.038
same,OR (SNP x treatment interaction),"rs9419608, allele G, REC, Imputed, atorvastatin vs pravastatin",0.5885
same,OR (SNP x treatment interaction),"rs9426437, allele T, DOM, Imputed, atorvastatin vs pravastatin",1.067
same,OR (SNP x treatment interaction),"rs9454967, allele G, DOM, Imputed, atorvastatin vs pravastatin",0.9744
same,OR (SNP x treatment interaction),"rs9635511, allele T, DOM, Imputed, atorvastatin vs pravastatin",0.8692
same,OR (SNP x treatment interaction),"rs9812206, allele G, ADD, Imputed, atorvastatin vs pravastatin",1.042
same,OR (SNP x treatment interaction),"rs9812206, allele G, DOM, Imputed, atorvastatin vs pravastatin",1.042
same,OR (SNP x treatment interaction),"rs9813552, allele G, ADD, Imputed, atorvastatin vs pravastatin",1.042
same,OR (SNP x treatment interaction),"rs9813552, allele G, DOM, Imputed, atorvastatin vs pravastatin",1.077
same,OR (SNP x treatment interaction),"rs9815037, allele T, DOM, Imputed, atorvastatin vs pravastatin",1.083
same,OR (SNP x treatment interaction),"rs9825349, allele A, DOM, Imputed, atorvastatin vs pravastatin",1.083
same,OR (SNP x treatment interaction),"rs9840756, allele A, ADD, Imputed, atorvastatin vs pravastatin",0.9995
same,OR (SNP x treatment interaction),"rs9840756, allele A, DOM, Imputed, atorvastatin vs pravastatin",1.031
